Columns and labels:
STAT5* [1] = test: QD probe assay for STAT5* in whole tumor cells; assay type: cell-based; conditions: tumor cells treated with Gleevec vs control (untreated) tumor cells, FIGS. 9A-9B
Description: Briefly; control tumor cells and tumor cells treated with Gleevec™ were processed (fixing, permeabilization, blocking, washing, etc.) to specifically bind optimized concentrations of QD-anti-STAT5* antibody probes to STAT5* protein kinase. After washing, the cells were imaged in multiple slices using the imaging techniques described above, covering the entire 3D space of the cells. QD probe bound to the cells was then compiled and projected on the cell for quantification.

STAT5* [2] = test: QD-STAT5* / QD-pSTAT5 probe assay in K562 CML cells; assay type: cell-based; conditions: clonal K562 CML cells, FIG. 11A
Description: Relative amounts of bound QD probes in each condition were estimated using the algorithms described above.
An epifluorescent microscope was used to acquire images of cells labeled with QD-pCRKL and QD-pSTAT5 probes, including are digital images of tumor cells (FIG. 10A), tumor cells treated with dasatinib (FIG. 10B), and control cells with antibody omitted (FIG. 10C), Average phosphoprotein levels were computed as the average number of QD probes/cell.

| SMILES | STAT5* activation (QD-anti-STAT5* probe binding) (STAT5* [1]) | heterogeneity in pSTAT5 activity (SD of QDs/cell) (STAT5* [2]) |
| --- | --- | --- |
| Cc1ccc(NC(=O)c2ccc(CN3CCN(C)CC3)cc2)cc1Nc1nccc(-c2cccnc2)n1 [Gleevec™, imatinib] | marked decrease in STAT5* activation |  |
| CC[C@H](C)C(=O)O[C@H]1C[C@@H](C)C=C2C=C[C@H](C)[C@H](CC[C@@H]3C[C@@H](O)CC(=O)O3)[C@H]21 [lovastatin] |  | reduced |
